Measurements from patent US7208502B2, “Methods of treating conditions associated with an Edg-3 receptor” (Maniv Energy Capital, priority 2002, dated 2007).

Legend:
[1] = molecular target: T1, Histamine H1, Central (Cavia porcellus, UniProt P31389); assay: Radioligand binding assay, 3H Pyrilamine; design: species or system Guinea pig; conditions: 10 μM; significance criteria ≧50% of max stimulation or inhibition
T1 construct: from tissue; host or cells: guinea pig cerebellum
Experimental: (§1) In order to test the selectivity of compounds, various enzyme assays as well as radioligand binding assays were performed using numerous non-Edg receptor targets as listed below.
(§2) A radioligand binding assay was performed using adrenergic α1 according to the method of Greengrass and Bremner 1979, Eur. J. Pharmacol. 55:323–326. A radioligand binding assay was performed using adrenergic α2 according to the method of Boyajian and Leslie, 1987, J. Pharmacol. Exp. Ther. 241:1092–1098. A radioligand binding assay was performed using adrenergic β according to the method of Feve et al., 1994, Proc. Natl. Acad. Sci. USA 91:5677–5681. A radioligand binding assay was performed using angiotensin AT2 according to the method of Whitebread et al., 1991, Biochem. Biophys. Res. Comm. 181:1365–1371. A radioligand binding assay was performed using calcium channel Type L, dihydropyridine according to the method of Ehlert et al., 1982, Life Sci. 30:2191–2202. A radioligand binding assay was performed using dopamine D2L according to the method of Bunzo et al., 1988, Nature 336:783–787. A radioligand binding assay was performed using endothelin ETA according to the method of Mihara et al., 1994, J. Phrmacol. Exp Ther. 268:1122–1127. A radioligand binding assay was performed using histamine H1 Central according to the method of Hill et al., 1978, J. Neurochem. 31:997–1004. […]
(§3) Quantitation Method: Radioligand Binding […]

[2] = molecular target: T2, Edg-2 (Homo sapiens, UniProt Q92633); assay: Intracellular calcium assay, LPA-stimulated, HTC cells expressing Edg-2; type: cell-based; conditions: concentrations as high as 20 µM
T2 construct: expressed in transfected cells; host or cells: HTC rat hepatoma cells
T2 sequence (Q92633 whole entry): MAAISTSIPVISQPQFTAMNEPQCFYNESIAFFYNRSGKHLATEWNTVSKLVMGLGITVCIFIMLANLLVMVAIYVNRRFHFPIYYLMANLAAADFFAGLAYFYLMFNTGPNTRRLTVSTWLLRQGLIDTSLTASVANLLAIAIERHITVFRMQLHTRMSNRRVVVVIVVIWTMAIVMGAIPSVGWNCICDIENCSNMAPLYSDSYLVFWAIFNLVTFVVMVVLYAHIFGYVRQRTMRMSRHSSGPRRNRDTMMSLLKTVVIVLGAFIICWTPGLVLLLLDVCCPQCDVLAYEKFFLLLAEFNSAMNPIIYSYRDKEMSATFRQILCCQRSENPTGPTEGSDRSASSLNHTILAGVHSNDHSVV

[3] = molecular target: T3, Angiotensin AT2 (Homo sapiens, UniProt P50052); assay: Radioligand binding assay, 125I CGP-42112A; conditions: 10 μM; significance criteria ≧50% of max stimulation or inhibition
T3 construct: expressed in transfected cells; host or cells: HeLa cells
T3 sequence (P50052 1-363): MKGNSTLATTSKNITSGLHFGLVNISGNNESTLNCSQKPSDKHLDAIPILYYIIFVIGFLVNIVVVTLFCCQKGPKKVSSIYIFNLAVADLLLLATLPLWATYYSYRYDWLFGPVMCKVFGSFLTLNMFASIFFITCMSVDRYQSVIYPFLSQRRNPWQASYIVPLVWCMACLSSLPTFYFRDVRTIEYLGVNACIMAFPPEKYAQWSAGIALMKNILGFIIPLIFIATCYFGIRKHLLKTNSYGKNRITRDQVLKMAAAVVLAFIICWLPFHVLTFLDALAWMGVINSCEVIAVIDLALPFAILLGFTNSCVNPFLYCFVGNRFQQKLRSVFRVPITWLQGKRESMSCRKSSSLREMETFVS
Experimental: as §1, §2, §3

[4] = system: Muscarinic non-selective, Central; assay: Radioligand binding assay, 3H Quinuclidinyl benzilate; design: species or system Wistar rat; conditions: 10 μM; significance criteria ≧50% of max stimulation or inhibition
Experimental: as §1, §2, §3

T1 sequence (P31389 whole entry): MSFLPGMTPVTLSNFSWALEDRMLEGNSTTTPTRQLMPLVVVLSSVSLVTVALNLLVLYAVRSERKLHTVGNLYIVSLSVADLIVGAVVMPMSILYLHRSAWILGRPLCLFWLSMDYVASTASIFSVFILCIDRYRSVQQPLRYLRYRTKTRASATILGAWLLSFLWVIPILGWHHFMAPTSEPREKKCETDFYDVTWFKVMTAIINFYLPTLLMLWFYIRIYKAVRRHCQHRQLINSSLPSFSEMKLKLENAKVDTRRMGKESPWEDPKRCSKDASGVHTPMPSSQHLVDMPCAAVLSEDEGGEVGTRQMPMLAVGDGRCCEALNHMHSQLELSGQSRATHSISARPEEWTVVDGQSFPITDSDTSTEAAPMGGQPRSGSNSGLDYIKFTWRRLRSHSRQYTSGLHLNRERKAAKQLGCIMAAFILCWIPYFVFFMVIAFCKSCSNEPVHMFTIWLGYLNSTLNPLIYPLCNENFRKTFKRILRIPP

In the case of Cc1c(-c2ccccc2)nc2ccccc2c1C(=O)NCc1ccc(F)cc1 [Compound 101, 3-methyl-2-phenyl-quinoline-4-carboxylic acid 4-fluoro-benzylamide], the “activity in standard binding assay, Histamine H1, Central” value [1] is reported as “no activity”, the “inhibition of LPA-stimulated calcium increases, Edg-2” value [2] is reported as “did not inhibit” and the “activity in standard binding assay, Angiotensin AT2” value [3] is reported as “no activity”. For the same molecule, the “activity in standard binding assay, Muscarinic non-selective, Central” value [4] was “no activity”.
